The results in this text go back to patent US6399782B1, “Benzimidazole inhibitors of fructose 1,6-bisphosphatase” (Metabasis Therapeutics, Inc., priority 1997, dated 2002).

In test [1] the test system is Zucker Diabetic Fatty rats. Nature of the test: Inhibition of gluconeogenesis in Zucker Diabetic Fatty rats (14C-bicarbonate incorporation into glucose). In kind it is in vivo, rat. As to conditions: 50 mg/kg bolus via jugular catheter. On the procedure: Nine Zucker Diabetic Fatty rats (16-weeks old, Genetics Models Inc., Indianapolis, Ind.) were fasted at midnight and instrumented with jugular catheters the following morning. […] After 50minutes a bolus of^14 C-sodium bicarbonate ([…]) was administered via the same route. 20 minutes later, the animals were quickly anesthetized with intravenous pentobarbitol and a blood sample (1.5 mL) was taken by cardiac puncture. Blood (0.5 mL) was diluted into 6 mL deionized water and protein precipitated by addition of 1 mL zinc sulfate (0.3 N) and 1 mL barium hydroxide (0.3 N). The mixture was centrifuged (20 minutes, 1000×g) and 5 mL of the resulting supernatant was then combined with 1 g of a mixed bed ion exchange resin (1 part AG 50W-X8, 100-200 mesh, hydrogen form and 2 parts of AG 1-X8, 100-200 mesh, acetate form) to separate ^14C-bicarbonate from ^14C-glucose. The slurry was shaken at room temperature for four hours and then allowed to settle. An aliquot of the supernatant (0.5 mL) was then counted in 5 mL scintillation cocktail.

The target of test [2] is T1, Adenylate Kinase (rabbit muscle) (Oryctolagus cuniculus, UniProt P00569).
T1 construct: Enzyme (rabbit muscle) was purchase from Sigma; purchased Sigma; host or cells: rabbit muscle
T1 sequence (P00569 1-194): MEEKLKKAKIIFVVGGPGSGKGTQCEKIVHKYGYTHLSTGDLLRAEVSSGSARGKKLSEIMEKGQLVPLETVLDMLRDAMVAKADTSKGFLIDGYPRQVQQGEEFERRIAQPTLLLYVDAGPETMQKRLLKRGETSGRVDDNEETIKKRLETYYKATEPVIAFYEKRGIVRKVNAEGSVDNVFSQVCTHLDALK
Description: Adenylate kinase selectivity assay. In kind it is biochemical. The note with it: for IC50: Table 3 Selectivity, read-out: Adenylate Kinase (inh.); for effect on adenylate kinase: result in words. As for the experimental part:
(§1) To determine the selectivity of compounds towards FBPase, effects of FBPase inhibitors on 5 key AMP binding enzymes were measured using the assays described below:
Adenylate Kinase: Enzyme (rabbit muscle) was purchase from Sigma. Activity was measured at 37° C. in reaction mixtures (100 μL) containing 100 mM Hepes, pH 7.4, 45 mM MgCl2, 1 mM EGTA, 100 mM KCl, 2 mg/ml BSA, 1 mM AMP and 2 mM ATP. Reactions were started by addition of 4.4 ng enzyme and terminated after 5 minutes by addition of 17 μL perchloric acid. Precipitated protein was removed by centrifugation and the supernatant neutralized by addition of 33 μL 3 M KOH/3 M KH2CO3. The neutralized solution was clarified by centrifugation and filtration and analyzed for ADP content (enzyme activity) by HPLC using a YMC ODS AQ column (25×4.6 cm). A gradient was run from 0.1 M KH2PO4, pH 6, 8 mM tetrabutyl ammonium hydrogen sulfate to 75% acetonitrile. Absorbance was monitored at 254 nm.

Test [3] concerns the target T2, Phosphofructokinase (rabbit liver) (Oryctolagus cuniculus, UniProt Z9KA34MY27).
T2 construct: Phosphofructokinase: Enzyme (rabbit liver) was purchased from Sigma
Description: Phosphofructokinase selectivity assay. Format: biochemical. The note with it: result in words. On the procedure: as §1
Phosphofructokinase: Enzyme (rabbit liver) was purchased from Sigma. Activity was measured at 30° C. in reactions in which the formation of fructose 1,6-bisphosphate was coupled to the oxidation of NADH via the action of aldolase, triosephosphate isomerase, and α-glycerophosphate dehydrogenase. Reaction mixtures (200 μL) were made up in 96-well microtitre plates and were read at 340 nm in a Molecular Devices Microplate Reader. The mixtures consisted of 200 mM Tris-HCl pH 7.0, 2 mM DTT, 2 mM MgCl2, 0.2 mM NADH, 0.2 mM ATP, 0.5 mM Fructose 6-phosphate, 1 unit aldolase/ml, 3 units/ml triosephosphate isomerase, and 4 units/mL α-glycerophosphate dehydrogenase. Test compound concentrations ranged from 1 to 500 μM. Reactions were started by the addition of 0.0025 units of phosphofructokinase and were monitored for 15 minutes.

A further test has as its target T3, Human adenosine kinase (Homo sapiens, UniProt P55263).
T3 construct: made in house; host or cells: E. coli
Description: Adenosine kinase selectivity assay. In kind it is biochemical. The note with it: for IC50: Table 3 Selectivity, read-out: Adenosine Kinase (inh.); for effect on adenosine kinase: result in words. On the procedure: as §1
Adenosine Kinase: Human adenosine kinase was purified from an E. coli expression system as described by Spychala et al (Spychala, J., Datta, N. S., Takabayashi, K., Datta, M., Fox, I. H., Gribbin, T., and Mitchell, B. S. (1996) Proc. Natl. Acad. Sci. USA 93, 1232-1237). Activity was measured essentially as described by Yamada et at (Yamada, Y., Goto, H., Ogasawara, N. (1988) Biochim. Biophys. Acta 660, 36-43.) with a few minor modifications. Assay mixtures contained 50 mM TRIS-maleate buffer, pH 7.0, 0.1% BSA, 1 mM ATP 1 mM MgCl2, 1.0 μM [U-^14C] adenosine (400-600 mCi/mmol) and varying duplicate concentrations of inhibitor. ^14C-AMP was separated from unreacted ^14C-adenosine by absorption to anion exchange paper (Whatman) and quantified by scintillation counting.

A further test deals with T4, human liver FBPase (Homo sapiens, UniProt P09467).
T4 construct: made in house; host or cells: E. coli BL21
T4 sequence (P09467 2-338 limits assumed): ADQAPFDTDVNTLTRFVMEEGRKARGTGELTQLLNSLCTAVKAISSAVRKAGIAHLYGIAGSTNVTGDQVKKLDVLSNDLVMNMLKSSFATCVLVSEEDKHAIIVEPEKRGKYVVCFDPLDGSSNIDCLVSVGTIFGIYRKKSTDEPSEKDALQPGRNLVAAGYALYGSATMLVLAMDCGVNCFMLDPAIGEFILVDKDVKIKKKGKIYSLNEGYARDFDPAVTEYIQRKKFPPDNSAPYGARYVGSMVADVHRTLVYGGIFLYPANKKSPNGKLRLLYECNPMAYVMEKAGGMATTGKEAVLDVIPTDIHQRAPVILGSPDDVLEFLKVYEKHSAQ
Nature of the test: Inhibition of human liver FBPase. Format: biochemical. The note with it: for IC50: values in text, read-out: hlFBPase IC50.

Structures are written as SMILES.

T3 sequence (P55263 1-345 isoform P55263-2): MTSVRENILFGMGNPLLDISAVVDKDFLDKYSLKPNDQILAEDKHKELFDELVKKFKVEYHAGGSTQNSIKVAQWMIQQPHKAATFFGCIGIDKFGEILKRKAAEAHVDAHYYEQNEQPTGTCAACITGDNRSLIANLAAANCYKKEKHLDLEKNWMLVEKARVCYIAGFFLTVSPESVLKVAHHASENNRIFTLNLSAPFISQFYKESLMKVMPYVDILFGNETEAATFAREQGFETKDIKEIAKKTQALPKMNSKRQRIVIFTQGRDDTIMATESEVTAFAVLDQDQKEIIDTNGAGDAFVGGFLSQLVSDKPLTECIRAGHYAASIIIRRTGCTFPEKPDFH
T2 sequence (Z9KA34MY27 1-780): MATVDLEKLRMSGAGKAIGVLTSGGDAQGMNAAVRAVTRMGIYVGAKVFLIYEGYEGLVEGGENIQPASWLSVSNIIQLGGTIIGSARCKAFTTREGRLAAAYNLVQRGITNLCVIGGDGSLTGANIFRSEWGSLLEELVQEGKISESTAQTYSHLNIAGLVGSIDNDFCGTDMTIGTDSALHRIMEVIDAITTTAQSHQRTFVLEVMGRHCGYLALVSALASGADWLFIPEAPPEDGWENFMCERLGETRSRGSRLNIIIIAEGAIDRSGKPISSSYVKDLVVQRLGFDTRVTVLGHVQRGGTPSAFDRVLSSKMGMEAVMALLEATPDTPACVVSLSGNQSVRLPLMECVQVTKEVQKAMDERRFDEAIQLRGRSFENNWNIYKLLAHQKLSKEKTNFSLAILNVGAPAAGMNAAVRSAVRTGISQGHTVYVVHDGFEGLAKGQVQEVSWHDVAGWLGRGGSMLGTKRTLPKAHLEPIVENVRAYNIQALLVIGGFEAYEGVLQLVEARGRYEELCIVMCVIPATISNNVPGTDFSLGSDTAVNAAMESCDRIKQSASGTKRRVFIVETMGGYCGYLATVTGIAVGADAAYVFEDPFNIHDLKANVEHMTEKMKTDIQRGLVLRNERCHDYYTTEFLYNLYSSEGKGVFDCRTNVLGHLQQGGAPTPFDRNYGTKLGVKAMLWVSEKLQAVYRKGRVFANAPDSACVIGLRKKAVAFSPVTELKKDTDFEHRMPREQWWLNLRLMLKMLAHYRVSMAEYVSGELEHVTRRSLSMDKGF
Description for human liver FBPase: Enzymatic activity was measured spectrophotometrically in reactions that coupled the formation of product (fructose 6-phosphate) to the reduction of dimethylthiazoldiphenyltetrazolium bromide (MTT) via NADP and phenazine methosulfate (PMS), using phosphoglucose isomerase and glucose 6-phosphate dehydrogenase as the coupling enzymes. Reaction mixtures (200 μl) were made up in 96-well microtitre plates, and consisted of 50 mM Tris-HCl, pH 7.4, 100 mM KCl, 5 mM EGTA, 2 mM MgCl2, 0.2 mM NADP, 1 mg/ml BSA, 1 mM MTT, 0.6 mM PMS, 1 unit/mL phosphoglucose isomerase, 2 units/mL glucose 6-phosphate dehydrogenase, and 0.150 mM substrate (fructose 1,6-bisphosphate). Inhibitor concentrations were varied from 0.01 μM to 10 μM. Reactions were started by the addition of 0.002 units of pure hlFBPase and were monitored for 7 minutes at 590 nm in a Molecular Devices Plate Reader (37° C.).

In the case of `CCc1cc(F)c(N)c2nc(-c3ccc(P(=O)(O)O)o3)n(CC(C)C)c12` [Compound 12.64], the “reduction of incorporation of 14C-bicarbonate into 14C-glucose” value in test [1] is “approximately 50%”. Also, in test [1] (14C-bicarbonate after 50 minutes, blood 20 minutes later), the “14C-Glucose Produced (cpm/mL blood)” value was 32,827 ± 6130 cpm/mL blood. For the same compound, the “% Glucose Produced” value in test [1] (saline = 100) is reported as 49.2%.

Turning to `Nc1c(F)ccc2c1nc(-c1ccc(P(=O)(O)O)o1)n2CC1CC1` [Compound 12.61, 4-Amino-5-fluoro-1-cyclopropylmethyl-2-(2-phosphono-5-furanyl)benzimidazole], in test [2], the IC50 was greater than 500 µM and the “effect on adenylate kinase” value was “essentially without effect”. The effect on phosphofructokinase entry in test [3] was “essentially without effect”. Also, at Human adenosine kinase, the IC50 was greater than 100 µM and the “effect on adenosine kinase” value is on record as “essentially without effect”. For the same compound, the “inhibition of human liver FBPase activity (FIG. 2)” value on human liver FBPase (result in words) is listed as “inhibit human liver FBPase activity in vitro in a dose dependent manner”. At human liver FBPase, the IC50 was 0.055 µM.

As for `CCn1c(-c2ccc(P(=O)(O)O)o2)nc2c(N)cccc21` [Compound 12.1, 4-Amino-1-ethyl-2-[2-(5-phosphono)furanyl]benzimidazole], in test [2], the IC50 was greater than 500 µM and the “effect on adenylate kinase” value was “essentially inactive”. The effect on phosphofructokinase entry in test [3] was “essentially inactive”. Moreover, at Human adenosine kinase, the IC50 was greater than 10 µM and the “effect on adenosine kinase” value is “essentially inactive”. Further, the IC50 on human liver FBPase stood at 2 µM.
